From patent US20050112573A1, “Method of detecting toxic substance” (priority 2001, published 2005)

Test system: yeast genes (level of expressed mRNA)
Assay: DNA chip analysis of expressed mRNA of yeast genes after 2 h culture with a toxic chemical substance
Type: cell-based, Saccharomyces cerevisiae S288C
Settings: for The level of expressed mRNA in the presence of chemical substance/ (ratio to absence of chemical substance): stress protein genes, DNA chip
Procedure: Yeast (Saccharomyces cerevtisiae S288C (α SUC2mal mel gap2 CUP1)) were cultured at 25° C. on YPD medium (yeast extract 1%, polypepton 2%, glucose 2%). One of toxic chemical substances was added to the cell at logarithmic growth phase, and the cell was further cultured for two hours. Cell was cultured without any chemical substance in the same condition, and was used as control. Concentrations of the chemical substances were defined to inhibit the growth of the yeast but not lead to death.
After the completion of cultivation, the culture was centrifuged to collect the cells. To the cells, sodium acetate buffer (50 mM sodium acetate, 10 mM EDTA, 1% SDS) was added, and the mixture was shaken at 65° C. for five minutes, followed by returning to room temperature, and obtaining the supernatant, which procedure was repeated two times. To the supernatant, ½ amount of a solution of phenol/chloroform was added, and the mixture was centrifuged to give a supernatant, which was added with an equal amount of chloroform, and the mixture was centrifuged to give a supernatant. To the supernatant, an equal amount of isopropanol containing 0.3 M sodium acetate was added, and the mixture was allowed to stand at room temperature for 30 minutes, after which the mixture was centrifuged to give a sediment of the whole RNAs. Seventy % ethanol was added to the sediment, and the mixture was again centrifuged to give a sediment, which was then dried and dissolved in water. mRNA was isolated from the whole RNAs as followings. In view of the fact that a poly A chain is attached to the 3′ terminus of mRNA, a polynucleotide having a poly T structure which was immobilized on the surface of latex beads was used to trap the mRNA, and then the mRNA was washed and eluted with spine column (Oligotex-dT30<Super>mRNA Purification Kit, Takara). Reverse transcription of the mRNA was conducted with a reverse transcriptase (Super Script II Reverse Transcriptase; catalogue No. 18064-014, GibcoBRL) using fluorescence-labeled nucleotides to give cDNAs that were introduced with Cy3-dUTP or Cy5-dUTP during the reverse transcription.
The labeled cDNAs were dissolved in TE buffer (10 mM Tris-HCl/1 mM EDTA, pH8.0), and the solution was dropped on the DNA chip containing the whole genes of yeast (DNA Chip Research Inc. Japan) so that the cDNAs were hybridized on the DNA chip at 65° C. for over 12 hours. The fluoresces intensity of the DNA chip was read with a scanner, and the ratio relative to the fluorescence intensity resulting from the absence of chemical substance was estimated as the following, which is shown in Tables 1 to 9: [formula]
In the Tables, “Intensity” indicated in the rightmost column is a value of the level of expressed mRNA of each gene in control cells as divided by the average level of the expressions of the whole genes.

## COc1cc(CNC(=O)CCCCC=CC(C)C)ccc1O [(12), 8-methyl-N-vanillyl-6-nonenamide]
Yeast gene YIL123W
  The level of expressed mRNA in the presence of chemical substance/The level of expressed mRNA in the absence of chemical substance: 0.8
Yeast gene YIL140W
  The level of expressed mRNA in the presence of chemical substance/The level of expressed mRNA in the absence of chemical substance: 1.0
Yeast gene YJL052W, two hours culture
  The level of expressed mRNA in the presence of chemical substance/The level of expressed mRNA in the absence of chemical substance: 2.4
Yeast gene YJL070C, ratio of DNA chip fluorescence intensity to that without chemical substance
  The level of expressed mRNA in the presence of chemical substance/ (in its absence), gene YJL070C: 1.0
Yeast gene YJL073W
  The level of expressed mRNA in the presence of chemical substance/The level of expressed mRNA in the absence of chemical substance: 1.0
Yeast gene YJL089W
  The level of expressed mRNA in the presence of chemical substance/The level of expressed mRNA in the absence of chemical substance: 1.2
Yeast gene YJL096W, mitochondria-located protein genes, 2 h culture with chemical
  The level of expressed mRNA in the presence of chemical substance/ (ratio to absence), gene YJL096W: 1.0
Yeast gene YJL116C
  The level of expressed mRNA in the presence of chemical substance/The level of expressed mRNA in the absence of chemical substance: 1.1
Yeast gene YJL158C
  The level of expressed mRNA in the presence of chemical substance/ (ratio to absence of chemical substance): 1.1
Yeast gene YJL167W, ratio of DNA chip fluorescence intensity to that without chemical substance
  The level of expressed mRNA in the presence of chemical substance/ (in its absence), gene YJL167W: 1.3
Yeast gene YJL180C, mitochondria-located protein genes, 2 h culture with chemical
  The level of expressed mRNA in the presence of chemical substance/ (ratio to absence), gene YJL180C: 0.8
Yeast gene YJL216C, ratio of DNA chip fluorescence intensity to that without chemical substance
  The level of expressed mRNA in the presence of chemical substance/ (in its absence), gene YJL216C: 1.0
Yeast gene YJR004C
  The level of expressed mRNA in the presence of chemical substance/The level of expressed mRNA in the absence of chemical substance: 0.8
Yeast gene YJR086W
  The level of expressed mRNA in the presence of chemical substance/The level of expressed mRNA in the absence of chemical substance: 0.8
Yeast gene YJR090C
  The level of expressed mRNA in the presence of chemical substance/ (ratio to absence of chemical substance): 0.8
Yeast gene YKL008C
  The level of expressed mRNA in the presence of chemical substance/The level of expressed mRNA in the absence of chemical substance: 1.5
Yeast gene YKL013C
  The level of expressed mRNA in the presence of chemical substance/The level of expressed mRNA in the absence of chemical substance: 0.7
Yeast gene YKL039W
  The level of expressed mRNA in the presence of chemical substance/The level of expressed mRNA in the absence of chemical substance: 0.9
Yeast gene YKL041W
  The level of expressed mRNA in the presence of chemical substance/The level of expressed mRNA in the absence of chemical substance: 0.8
Yeast gene YKL096W
  The level of expressed mRNA in the presence of chemical substance/The level of expressed mRNA in the absence of chemical substance: 0.3
Yeast gene YKL164C
  The level of expressed mRNA in the presence of chemical substance/ (ratio to absence of chemical substance): 0.8
Yeast gene YKL165C
  The level of expressed mRNA in the presence of chemical substance/The level of expressed mRNA in the absence of chemical substance: 2.4
Yeast gene YKL193C
  The level of expressed mRNA in the presence of chemical substance/The level of expressed mRNA in the absence of chemical substance: 0.9
Yeast gene YKR009C, ratio of DNA chip fluorescence intensity to that without chemical substance
  The level of expressed mRNA in the presence of chemical substance/ (in its absence), gene YKR009C: 1.0
Yeast gene YKR034W, ratio of DNA chip fluorescence intensity to that without chemical substance
  The level of expressed mRNA in the presence of chemical substance/ (in its absence), gene YKR034W: 0.7
Yeast gene YKR053C
  The level of expressed mRNA in the presence of chemical substance/ (ratio to absence of chemical substance): 0.7
Yeast gene YKR058W, energy system protein genes, 2 h culture with the chemical, ratio to control without chemical
  The level of expressed mRNA in the presence of chemical substance/ in its absence, gene YKR058W: 0.9
Yeast gene YLR006C, ratio of DNA chip fluorescence intensity to that without chemical substance
  The level of expressed mRNA in the presence of chemical substance/ (in its absence), gene YLR006C: 0.7
Yeast gene YLR006C
  The level of expressed mRNA in the presence of chemical substance/ (ratio to absence of chemical substance): 0.7
Yeast gene YLR120C
  The level of expressed mRNA in the presence of chemical substance/The level of expressed mRNA in the absence of chemical substance: 1.6
Yeast gene YLR136C
  The level of expressed mRNA in the presence of chemical substance/The level of expressed mRNA in the absence of chemical substance: 1.3
Yeast gene YLR178C
  The level of expressed mRNA in the presence of chemical substance/The level of expressed mRNA in the absence of chemical substance: 2.2
Yeast gene YLR250W
  The level of expressed mRNA in the presence of chemical substance/The level of expressed mRNA in the absence of chemical substance: 1.0
Yeast gene YLR295C, energy system protein genes, 2 h culture with the chemical, ratio to control without chemical
  The level of expressed mRNA in the presence of chemical substance/ in its absence, gene YLR295C: 0.5
Yeast gene YLR295C, mitochondria-located protein genes, 2 h culture with chemical
  The level of expressed mRNA in the presence of chemical substance/ (ratio to absence), gene YLR295C: 0.5
Yeast gene YLR327C
  The level of expressed mRNA in the presence of chemical substance/The level of expressed mRNA in the absence of chemical substance: 1.4
Yeast gene YLR351C, ratio of DNA chip fluorescence intensity to that without chemical substance
  The level of expressed mRNA in the presence of chemical substance/ (in its absence), gene YLR351C: 0.9
Yeast gene YLR356W
  The level of expressed mRNA in the presence of chemical substance/The level of expressed mRNA in the absence of chemical substance: 1.5
Yeast gene YLR362W
  The level of expressed mRNA in the presence of chemical substance/The level of expressed mRNA in the absence of chemical substance: 0.8
Yeast gene YLR375W, ratio of DNA chip fluorescence intensity to that without chemical substance
  The level of expressed mRNA in the presence of chemical substance/ (in its absence), gene YLR375W: 0.9
Yeast gene YLR391W
  The level of expressed mRNA in the presence of chemical substance/The level of expressed mRNA in the absence of chemical substance: 1.0
Yeast gene YLR429W
  The level of expressed mRNA in the presence of chemical substance/The level of expressed mRNA in the absence of chemical substance: 1.1
Yeast gene YML129C, energy system protein genes, 2 h culture with the chemical, ratio to control without chemical
  The level of expressed mRNA in the presence of chemical substance/ in its absence, gene YML129C: 0.8
Yeast gene YML129C, mitochondria-located protein genes, 2 h culture with chemical
  The level of expressed mRNA in the presence of chemical substance/ (ratio to absence), gene YML129C: 0.8
Yeast gene YMR004W
  The level of expressed mRNA in the presence of chemical substance/The level of expressed mRNA in the absence of chemical substance: 1.0
Yeast gene YMR023C, mitochondria-located protein genes, 2 h culture with chemical
  The level of expressed mRNA in the presence of chemical substance/ (ratio to absence), gene YMR023C: 0.7
Yeast gene YMR094W
  The level of expressed mRNA in the presence of chemical substance/The level of expressed mRNA in the absence of chemical substance: 0.9
Yeast gene YMR104C
  The level of expressed mRNA in the presence of chemical substance/The level of expressed mRNA in the absence of chemical substance: 1.0
Yeast gene YMR186W
  The level of expressed mRNA in the presence of chemical substance/ (ratio to absence of chemical substance): 1.0
Yeast gene YMR219W
  The level of expressed mRNA in the presence of chemical substance/The level of expressed mRNA in the absence of chemical substance: 1.5
Yeast gene YMR226C
  The level of expressed mRNA in the presence of chemical substance/The level of expressed mRNA in the absence of chemical substance: 1.1
Yeast gene YMR267W, energy system protein genes, 2 h culture with the chemical, ratio to control without chemical
  The level of expressed mRNA in the presence of chemical substance/ in its absence, gene YMR267W: 0.8
Yeast gene YMR267W, mitochondria-located protein genes, 2 h culture with chemical
  The level of expressed mRNA in the presence of chemical substance/ (ratio to absence), gene YMR267W: 0.8
Yeast gene YMR267W, ratio of DNA chip fluorescence intensity to that without chemical substance
  The level of expressed mRNA in the presence of chemical substance/ in its absence, gene YMR267W: 0.8
Yeast gene YMR275C
  The level of expressed mRNA in the presence of chemical substance/The level of expressed mRNA in the absence of chemical substance: 0.7
Yeast gene YMR276W
  The level of expressed mRNA in the presence of chemical substance/The level of expressed mRNA in the absence of chemical substance: 1.2
Yeast gene YMR278W, ratio of DNA chip fluorescence intensity to that without chemical substance
  The level of expressed mRNA in the presence of chemical substance/ (in its absence), gene YMR278W: 1.0
Yeast gene YMR293C, ratio of DNA chip fluorescence intensity to that without chemical substance
  The level of expressed mRNA in the presence of chemical substance/ (in its absence), gene YMR293C: 0.9
